# According to paper PMC10653066 (ACS Omega, 2023):
# Like-named read-outs stand apart in the source and are kept apart here.
# Columns and labels:
# [1] = system: YFV 17D; experiment: microbe, parasite or virus in culture; format: cell-based, Yellow fever virus; conditions: for EC50: Yellow fever virus, Huh-7, read-out: EC50 (YFV 17D, μM)
# [2] = system: YFV 17D; conditions: read-out: EC50 against YFV; cited from earlier work
molecule,measurement,setting,value
"4-((1-((6-Acetylnaphthalen-1-yl)sulfonyl)-5-amino-1H-1,2,4-triazol-3-yl)amino)benzonitrile [RCB22056]","activity against YFV (words, SAR discussion)",[1],inactive
"N#Cc1c(Nc2ccc(Cl)cc2)n[nH]c1NS(=O)(=O)c1ccc2ccccc2c1 [RCB16002, N-(3-((4-Chlorophenyl)amino)-4-cyano-1H-pyrazol-5-yl)naphthalene-2-sulfonamide]",EC50,[1],7.1 µM
"N#Cc1c(Nc2ccc(F)cc2)n[nH]c1NS(=O)(=O)c1ccc2ccccc2c1 [RCB16003, N-(4-Cyano-3-((4-fluorophenyl)amino)-1H-pyrazol-5-yl)naphthalene-2-sulfonamide]",EC50,[2],3.2 µM
"N#Cc1c(Nc2ccc(F)c(F)c2)n[nH]c1NS(=O)(=O)c1ccc2ccccc2c1 [RCB16004, N-(4-Cyano-3-((3,4-difluorophenyl)amino)-1H-pyrazol-5-yl)naphthalene-2-sulfonamide]",EC50,[1],> 36 µM
"COc1ccc(Nc2nc(N)n(S(=O)(=O)c3cccc4ccccc34)n2)cc1 [RCB16086, N^3-(4-Methoxyphenyl)-1-(naphthalen-1-ylsulfonyl)-1H-1,2,4-triazole-3,5-diamine]","activity against YFV (words, SAR discussion)",[1],complete loss of potency
"Nc1nc(Nc2ccc(Cl)c(Cl)c2)n(S(=O)(=O)c2ccc3ccccc3c2)n1 [RCB17160, N^5-(3,4-Dichlorophenyl)-1-(naphthalen-2-ylsulfonyl)-1H-1,2,4-triazole-3,5-diamine]","activity against YFV (words, SAR discussion)",[1],did not display any activity
"CC(=O)c1ccc2c(S(=O)(=O)n3nc(Nc4ccc(C#N)c(Cl)c4)nc3N)cccc2c1 [RCB22055, 4-((1-((6-Acetylnaphthalen-1-yl)sulfonyl)-5-amino-1H-1,2,4-triazol-3-yl)amino)-2-chlorobenzonitrile]","activity against YFV (words, SAR discussion)",[1],low micromolar activity
